Experimental data taken from patent US9447085B2, “Iminothiadiazine dioxides containing a thioamide, amidine, or amide oxime group as BACE inhibitors, compositions, and their use” (Merck Sharp & Dohme Corp., priority 2012, dated 2016).

Legend:
[1] = target: purified human autoBACE-2 (Homo sapiens (Human), UniProt Q9Y5Z0); assay: BACE-2 Assay (BACE-HTRF assay); assay type: biochemical; settings: Ki calculated from IC50 using the Cheng-Prusoff equation; read-out: BACE2 Ki
Protocol: Inhibitor IC50s at purified human autoBACE-2 are determined in a time-resolved endpoint proteolysis assay that measures hydrolysis of the QSY7-[…]-Eu-amide FRET peptide substrate (BACE-HTRF assay). […] DMSO is present at 5% final concentration in the assay. Following laser excitation of sample wells at 320 nm, the fluorescence signal at 620 nm is collected for 400 ms following a 50 μs delay on a RUBYstar HTRF plate reader (BMG Labtechnologies). Raw RFU data is normalized to maximum (1.0 nM BACE/DMSO) and minimum (no enzyme/DMSO) RFU values. […] The Ki values are calculated from the IC50 using the Cheng-Prusoff equation.

[2] = target: soluble human BACE1 catalytic domain (Homo sapiens (Human), UniProt P56817); assay: BACE1 HTRF FRET Assay; assay type: biochemical; settings: for Ki: Ki calculated from IC50 using the Cheng-Prusoff equation
Sequence of soluble human BACE1 catalytic domain (P56817 75-416): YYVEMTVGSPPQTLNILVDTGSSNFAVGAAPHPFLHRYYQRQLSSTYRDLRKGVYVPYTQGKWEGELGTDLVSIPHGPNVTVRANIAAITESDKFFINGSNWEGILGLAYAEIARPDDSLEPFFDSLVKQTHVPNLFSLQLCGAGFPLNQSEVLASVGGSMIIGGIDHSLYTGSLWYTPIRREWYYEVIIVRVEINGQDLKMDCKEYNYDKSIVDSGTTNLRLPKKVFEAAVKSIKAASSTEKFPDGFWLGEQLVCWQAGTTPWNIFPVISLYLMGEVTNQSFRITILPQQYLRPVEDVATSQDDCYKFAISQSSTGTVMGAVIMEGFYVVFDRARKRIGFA
Text: A homogeneous time-resolved FRET assay can be used to determine IC50 values for inhibitors of the soluble human BACE1 catalytic domain. This assay monitors the increase of 620 nm fluorescence that resulted from BACE1 cleavage of an APPswedish APP^swe mutant peptide FRET substrate (QSY7-[…]-Europium-amide). This substrate contains an N-terminal QSY7 moiety that serves as a quencher of the C-terminal Europium fluorophore (620 nm Em). In the absence of enzyme activity, 620 nm fluorescence is low in the assay and increased linearly over 3 hours in the presence of uninhibited BACE1 enzyme Inhibition of BACE1 cleavage of the QSY7-APP^swe-Eu substrate by inhibitors is manifested as a suppression of 620 nm fluorescence.
Reactions are initiated by addition of 10 μl of 600 nM QSY7-APP^swe-Eu substrate (200 nM final) to give a final reaction volume of 30 μl in a 384 well Nunc HTRF plate. The reactions are incubated at 30° C. for 1.5 hours. The 620 nm fluorescence is then read on a Rubystar HTRF plate reader (BMG Labtechnologies) using a 50 millisecond delay followed by a 400 millisecond acquisition time window Inhibitor IC50 values are derived from non-linear regression analysis of concentration response curves.

Sequence of purified human autoBACE-2 (Q9Y5Z0 63-473): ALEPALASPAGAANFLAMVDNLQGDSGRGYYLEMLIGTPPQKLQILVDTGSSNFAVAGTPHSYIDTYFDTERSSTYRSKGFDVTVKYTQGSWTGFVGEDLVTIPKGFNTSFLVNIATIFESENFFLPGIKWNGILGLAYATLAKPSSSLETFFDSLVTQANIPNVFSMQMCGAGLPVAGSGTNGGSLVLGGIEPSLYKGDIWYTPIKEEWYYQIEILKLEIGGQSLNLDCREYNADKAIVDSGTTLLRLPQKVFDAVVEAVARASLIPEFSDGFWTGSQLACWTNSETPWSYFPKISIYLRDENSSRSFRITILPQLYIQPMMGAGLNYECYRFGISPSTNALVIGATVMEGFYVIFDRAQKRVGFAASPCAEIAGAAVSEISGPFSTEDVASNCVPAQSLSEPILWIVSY

Row | SMILES | Ki [1] | Ki [2] | inhibition at 10 µM ([2]; @ 10 uM)
1 | CN1C(=N)N[C@](C)(c2cc(NC(=S)c3ccc(C(F)(F)F)cn3)cc(F)c2F)CS1(=O)=O [Example 13] | 21 nM | 30 nM | –
2 | COc1cnc(C(=S)Nc2cc(F)c(F)c([C@]3(C)CS(=O)(=O)N(C)C(=N)N3)c2)cn1 [Example 14] | 18 nM | 8 nM | –
3 | CN1C(=N)N[C@](C)(c2cc(NC(=N)c3ccc(Br)cn3)ccc2F)CS1(=O)=O [Example 7] | 148 nM | 371 nM | –
4 | CN1C(=N)N[C@](C)(c2cc(NC(=S)C(F)F)ccc2F)CS1(=O)=O [Example 4] | 7 nM | 83 nM | –
5 | COc1ccc(C(=S)Nc2ccc(F)c([C@]3(C)CS(=O)(=O)N(C)C(=N)N3)c2)nc1 [Example 2] | 8 nM | 57 nM | –
6 | COc1cnc(C(=S)Nc2ccc(F)c([C@]3(C)CS(=O)(=O)N(C)C(=N)N3)c2)cn1 [Example 4c] | 4 nM | 3 nM | –
7 | COCC(=S)Nc1cc(F)c(F)c([C@]2(C)CS(=O)(=O)N(C)C(=N)N2)c1 [Example 10] | 6 nM | 188 nM | –
8 | COc1ccc(C(=S)Nc2cc(F)c(F)c([C@]3(C)CS(=O)(=O)N(C)C(=N)N3)c2)nc1 [Example 9] | 15 nM | 57 nM | –
9 | CN1C(=N)N[C@](C)(c2cc(NC(=S)C(F)F)cc(F)c2F)CS1(=O)=O [Example 11] | 28 nM | 95 nM | –
10 | CO/N=C(/Nc1ccc(F)c([C@]2(C)CS(=O)(=O)N(C)C(=N)N2)c1)c1ccc(Cl)cn1 [Example 6] | 58 nM | 340 nM | –
11 | CO/N=C(/Nc1ccc(F)c([C@]2(C)CS(=O)(=O)N(C)C(=N)N2)c1)c1ccc(OC)cn1 [Example 5] | 1450 nM | – | 47%

These reach a lower Ki [1]. Values come first.

Row | Ki [1] | Ki [2] | inhibition at 10 µM ([2]; @ 10 uM) | SMILES
12 | 2 nM | 152 nM | – | COCC(=S)Nc1ccc(F)c([C@]2(C)CS(=O)(=O)N(C)C(=N)N2)c1 [Example 3]
13 | 1 nM | 9.1 nM | – | CN1C(=N)N[C@](C)(c2cc(NC(=S)c3ccc(Cl)cn3)ccc2F)CS1(=O)=O [Example 1]
14 | 2 nM | 25 nM | – | CN1C(=N)N[C@](C)(c2cc(NC(=S)c3ccc(F)cn3)ccc2F)CS1(=O)=O [Example 4b]
15 | 3 nM | 17 nM | – | CN1C(=N)N[C@](C)(c2cc(NC(=S)c3ccc(F)cn3)cc(F)c2F)CS1(=O)=O [Example 12]
16 | 2 nM | 9 nM | – | CN1C(=N)N[C@](C)(c2cc(NC(=S)c3ccc(Cl)cn3)cc(F)c2F)CS1(=O)=O [Example 8]
